Test results reported in ChEMBL document CHEMBL6120976, “Derivatization of Microcystins Can Increase Target Inhibition while Reducing Cellular Uptake” (J Nat Prod, 2025).
pIC50: −log10 of the molar value. Numbered stars: 1 amine (or outer) side, 2 acyl side, 3 side chain; on linkers, the order of the positions; unused ones are H or OH. Bridge positions count the residues as written; N and C are the ends. Square brackets hold non-standard residues; d marks the D form. Peptide text beside a SMILES is read from it. Adda = CO[C@@H](Cc1ccccc1)[C@@H](C)/C=C(C)/C=C/[C@H](N[*:1])[C@H](C)C(=O)[*:2]; dAsp(3S-Me) = C[C@H](C(=O)[*:3])[C@@H](N[*:1])C(=O)[*:2]; d(γGlu) = O=C(O)[C@@H](CCC(=O)[*:2])N[*:1]; NMeDha = C=C(NC)C(=O)O

Key:
[1] = Inhibition of PP1 (unknown origin) incubated for 2 hrs by absorbance based assay; parameters: species or system Homo sapiens
[2] = Selectivity index, ratio of EC50 for cytotoxicity against sodium butyrate-treated HEK293 cells transfected with OATP1B1 to IC50 for inhibition of PP1 (unknown origin); type: cell-based
[3] = Selectivity index, ratio of EC50 for cytotoxicity against sodium butyrate-treated HEK293 cells transfected with OATP1B3 to IC50 for inhibition of PP1 (unknown origin); type: cell-based
OATP1B3 = assay: Cytotoxicity against sodium butyrate-treated HEK293 cells transfected with OATP1B3 incubated for 48 hrs by absorbance based assay; type: toxicity, cell-based; details: human
[4] = Selectivity index, ratio of EC50 for cytotoxicity against sodium butyrate-treated HEK293 cells transfected with OATP1B1 to EC50 for cytotoxicity against sodium butyrate-treated HEK293 cells transfected with OATP1B3; type: cell-based
OATP1B1 = assay: Cytotoxicity against sodium butyrate-treated HEK293 cells transfected with OATP1B1 incubated for 48 hrs by absorbance based assay; type: toxicity, cell-based; details: human

In the case of `C=C1C(=O)N[C@H](C)C(=O)N[C@@H](CC(C)C)C(=O)N[C@@H](C(=O)O)[C@H](C)C(=O)N[C@@H](CCCNC(=N)N)C(=O)N[C@@H](/C=C/C(C)=C/[C@H](C)[C@H](Cc2ccccc2)OC)[C@H](C)C(=O)N[C@@H](C(=O)O)CCC(=O)N1C` [MICROCYSTIN-LR] (R[Adda][d(γGlu)][NMeDha][dA]L[dAsp(3S-Me)]-OH; lactam N-7), the pIC50 [1] was 8.26, the Ratio [2] was 1.6 and the Ratio [3] was 1.7. For the same molecule, the EC50 at 48 h (OATP1B3) was 9.3 nM, the Ratio EC50 [4] was 1 and the EC50 at 48 h (OATP1B1) was 8.8 nM.
